Data: publication PMC6722010 (Molecular pharmaceutics, 2019)

Key:
solubility = assay type: physicochemical; conditions: water / buffer
PSMA = assay: in vivo 68Ga-PSMA-11 blocking, PET imaging and biodistribution; conditions: 22Rv1 xenograft mice; organs gamma counted

For `N[C@@H](Cc1ccc(B(O)O)cc1)C(=O)O` [BPA, 4-borono-L-phenylalanine], the solubility (solubility) was “low solubility in buffer” and the “68Ga-PSMA-11 biodistribution, uptake in kidney, spleen and tumor” value (PSMA) was “did not significantly block uptake”.
